Patent US20060251751A1, “Sophoridine and its use as an analgesic” (SHANGHAI FANGDA PHARMACEUTICALS, LTD., priority 2001, published 2006)
Marks after values point to notes of the source that are not given here.

How the values were obtained:
[1] = system: patients suffering from advanced cancers; test: Clinical trials in more than 200 patients with advanced cancers; format: in vivo, human
[2] = system: mice; test: Effect of the opioid receptor antagonist naloxone on morphine- and sophoridine-induced analgesia; format: in vivo
Procedure: Following procedures of the previous Examples, screening and grouping of experimental animals was carried out. […] The animals of negative control were injected with normal saline. The pain thresholds (response latency time, seconds, of each animal was recorded at 15, 30, 60, and 90 minutes after administrations, respectively. The results are summarized in Table 4 below.

[3] = system: tumor cells; conditions: cited from earlier work
[4] = system: mice; test: Comparison of analgesic effects and synergistic activity between sophoridine and morphine (hot plate method); format: in vivo; conditions: for Pain thresholds before admin.: before admin. (baseline)
Procedure: In five experimental groups, animals of each group received 25, 20, 15, 10 and 5 mg/kg of the sophoridine suspended in a normal saline solution, respectively.

[5] = system: Kunming mice; test: Analgesic effect of sophoridine on mice models (acetic acid induced writhing method); format: in vivo; conditions: for Number of writhe (X ± SD): 0.6% acetic acid i.p.
Procedure: The analgesic activity of sophoridine was also tested in vivo in mice experimental models, using acetic acid induced writhing Method which are known to evaluate the pain in animals. Writhing test is a standard procedure for detecting and comparing analgesic activity in laboratory animals, and generally correlates well with human efficacy.
30 Male and 30 female Kunming mice weighing 18-22 g were used as experimental models. […] Then, the animals randomly divided into six groups, each group includes 10 animals. Five experimental groups intravenously received 25, 20, 15, 10 and 5 mg/Kg of the sophoridine suspended in a normal saline solution via the tail vein, respectively.
The frequency of writhing syndrome was counted for 5 minutes from 15 minutes after the injection of spophoridine or placebo. The control group received treatment only with the solvent (normal saline).

[6] = system: acetylcholine level in central nervous system; test: Preliminary study on mechanism of analgesic effect (acetylcholine level in CNS)
Description: Therefore, sophoridine and derivatives thereof are also useful for treating patients suffering from neurodegenerative diseases, senile dementia of the Alzheimer's type (SDAT) and Pakinson's disease (PD).

[7] = system: Male Kunming mice; test: Analgesic effect of sophoridine on mice model (hot plate method); format: in vivo; conditions: for Pain thresholds (seconds) After administration: 10 minutes after administration; for Pain thresholds (seconds) Before administration: before administration (baseline)
Procedure: The analgesic activity of sophoridine was tested in vivo in mice experimental models, using Hot Plate Method, which are known to evaluate the pain in animals.
The method that was used is described by Eddy N. B. and Leimbach D. (J. Pharm. Exp. Ther. 107: 385-393, 1953) and somewhat modification is made in the present invention.
Male Kunming mice weighing 18-22 g were used as experimental model. The analgesic effect of the sophoridine was evaluated by analysing the behavioral response of the animals on a hot surface at 55° C.±0.5° C. The alkaloid compounds being tested were administered intravenously through the tail vein 10 minutes before starting the test.
Briefly, the process consisted of placing the animals on the plate and keeping them in a plastic cylinder 22 cm diameter and 11 cm high. The time the animals took to lick a paw or jump off the hot surface was determined. The animals were selected before starting the test that those with response latency (the pain threshold values before administrations) longer than 30 seconds were excluded from the experiment. The certificated animals divided into six groups (10 animals/group). Five experimental groups received 25, 20, 15, 10 and 5 mg/kg of the sophoridine suspended in a normal saline solution, respectively. The control group received treatment only with the solvent (normal saline).
10 minutes after administering the alkaloids being tested, the test was repeated and the maximum response latency time (seconds) took the animals to lick the hindlimb or jump off and run away was again recorded.

[8] = sophoridine 25 mg/kg i.v., hot plate 55°C

## O=C1CCC[C@@H]2[C@H]3CCCN4CCC[C@H](CN12)[C@@H]34 [Sophoridine]
[1]
  effect on pain caused by malignant growth of cancer tissues (in words): significantly inhibit or alleviate mild to severe pain
  effect on proliferation of tumor cells (in words): inhibit proliferation of tumor cells
[1]; higher doses for a long term
  side effects of tolerance and addiction (in words): did not develop any side effects of tolerance and addiction
[2]; naloxone 2.0 mg/kg, morphine 10 mg/kg or sophoridine 20 mg/kg
  naloxone counteracting the analgesic effect (in words): ineffective in counteracting the effect
[2]; sophoridine alone 20 mg/kg i.v., 15 min.
  Pain thresholds after admin. (seconds) 15 min.: 34.5 ± 16.2 s
[2]; sophoridine alone 20 mg/kg i.v., 30 min.
  Pain thresholds after admin. (seconds) 30 min.: 23.8 ± 7.0 s
[2]; sophoridine alone 20 mg/kg i.v., 60 min.
  Pain thresholds after admin. (seconds) 60 min.: 21.8 ± 8.9 s
[2]; sophoridine alone 20 mg/kg i.v., 90 min.
  Pain thresholds after admin. (seconds) 90 min.: 18.3 ± 6.6 s
[2]; sophoridine alone 20 mg/kg i.v., before admin. (baseline)
  Pain thresholds before admin.: 17.9 ± 2.6 s
[3]; Xuemei Li et al. 1987
  anti-tumor activities (in words): tumor cell-killing and tumor cell growth-inhibiting activities
[3]; Xuemei Li et al.
  effect on functions of hematopoietic and immunological systems (in words): does not inhibit the functions of hematopoietic and immunological systems
[4]; sophoridine 5 mg/kg
  Pain thresholds after admin. (seconds) 15 min.: 17.5 ± 3.3 s
  Pain thresholds after admin. (seconds) 30 min.: 16.6 ± 6.5 s
  Pain thresholds after admin. (seconds) 60 min.: 16.0 ± 4.5 s
  Pain thresholds after admin. (seconds) 90 min.: 19.3 ± 5.4 s
  Pain thresholds before admin.: 17.45 ± 2.6 s
[4]; sophoridine 10 mg/kg
  Pain thresholds after admin. (seconds) 15 min.: 20.2 ± 7.2 s
  Pain thresholds after admin. (seconds) 30 min.: 28.0 ± 18.3 s
  Pain thresholds after admin. (seconds) 60 min.: 12.6 ± 5.9 s
  Pain thresholds after admin. (seconds) 90 min.: 20.5 ± 15.0 s
  Pain thresholds before admin.: 18.6 ± 4.9 s
[4]; sophoridine 15 mg/kg
  Pain thresholds after admin. (seconds) 15 min.: 32.9 ± 19.2 s
  Pain thresholds after admin. (seconds) 30 min.: 31.3 ± 17.5 s
  Pain thresholds after admin. (seconds) 60 min.: 15.2 ± 10.2 s
  Pain thresholds after admin. (seconds) 90 min.: 15.8 ± 5.7 s
  Pain thresholds before admin.: 16.45 ± 3.9 s
[4]; sophoridine 20 mg/kg
  Pain thresholds after admin. (seconds) 15 min.: 36.8 ± 18.2 s
  Pain thresholds after admin. (seconds) 30 min.: 24.6 ± 7.7 s
  Pain thresholds after admin. (seconds) 60 min.: 23.0 ± 9.9 s
  Pain thresholds after admin. (seconds) 90 min.: 19.3 ± 6.6 s
  Pain thresholds before admin.: 16.9 ± 2.5 s
[4]; sophoridine 25 mg/kg
  Pain thresholds after admin. (seconds) 15 min.: 44.3 ± 14.9 s
  Pain thresholds after admin. (seconds) 30 min.: 28.3 ± 11.4 s
  Pain thresholds after admin. (seconds) 60 min.: 20.3 ± 4.9 s
  Pain thresholds after admin. (seconds) 90 min.: 18.8 ± 6.3 s
  Pain thresholds before admin.: 15.4 ± 4.0 s
[4]; sophoridine in higher doses, hot plate
  analgesic activity compared to morphine hydrochloride (in words): comparable or better analgesic activity
[5]; sophoridine 5 mg/kg i.v.
  Number of writhe (X ± SD): 23.2 ± 6.43
[5]; sophoridine 10 mg/kg i.v.
  Number of writhe (X ± SD): 14.1 ± 9.64
[5]; sophoridine 15 mg/kg i.v.
  Number of writhe (X ± SD): 9.9 ± 6.3
[5]; sophoridine 20 mg/kg i.v.
  Number of writhe (X ± SD): 1.5 ± 1.35
[5]; sophoridine 25 mg/kg i.v., counted for 5 minutes from 15 minutes after injection
  Number of writhe (X ± SD): 0***
[5]; writhing method, 5-25 mg/kg i.v.
  analgesic activity in mice models (in words): good analgesic activity
[6]
  acetylcholine level in central nervous system (in words): significant increasing acetylcholine level
[7]; hot plate method, 5-25 mg/kg i.v.
  analgesic activity in mice models (in words): good analgesic activity
[7]; sophoridine 5 mg/kg i.v.
  Pain thresholds (seconds) After administration: 25.8 ± 20.74 s
  Pain thresholds (seconds) Before administration: 16.3 ± 6.02 s
[7]; sophoridine 10 mg/kg i.v.
  Pain thresholds (seconds) After administration: 24.8 ± 15.99 s
  Pain thresholds (seconds) Before administration: 11.7 ± 4.59 s
[7]; sophoridine 15 mg/kg i.v.
  Pain thresholds (seconds) After administration: 38.5 ± 17.19 s
  Pain thresholds (seconds) Before administration: 14.7 ± 4.62 s
[7]; sophoridine 20 mg/kg i.v.
  Pain thresholds (seconds) After administration: 57.1 ± 6.10 s
  Pain thresholds (seconds) Before administration: 12.4 ± 4.25 s
[7]; [8]
  Pain thresholds (seconds) After administration: 48.6 ± 19.14 s
  Pain thresholds (seconds) Before administration: 16.4 ± 6.48 s

## O=C1C=CC[C@@H]2[C@H]3CCCN4CCC[C@@H](CN12)[C@@H]34 [sophocarpine]
[1]
  effect on pain caused by malignant growth of cancer tissues (in words): significantly inhibit or alleviate mild to severe pain
  effect on proliferation of tumor cells (in words): inhibit proliferation of tumor cells
